From ChEMBL document CHEMBL1250513, “(R,S)-anti-1-amino-2-[18F]fluorocyclopentyl-1-carboxylic acid: synthesis from racemic 2-benzyloxycyclopentanone and biological evaluation for brain tumor imaging with positron emission tomography” (J Med Chem, 2010)

Columns and labels:
Blood [1] = assay: Biodistribution in rat 9L tumor bearing fisher rat blood at 40 to 50 uCi, iv after 15 mins; format: ADME, organism-based; conditions: in vivo, 0.25 h
Heart [2] = assay: Biodistribution in rat 9L tumor bearing fisher rat heart at 40 to 50 uCi, iv after 15 mins; format: ADME, organism-based; conditions: in vivo, 0.25 h
Lung [3] = assay: Biodistribution in rat 9L tumor bearing fisher rat lung at 40 to 50 uCi, iv after 15 mins; format: ADME, organism-based; conditions: in vivo, 0.25 h
Liver [4] = assay: Biodistribution in rat 9L tumor bearing fisher rat liver at 40 to 50 uCi, iv after 15 mins; format: ADME, organism-based; conditions: in vivo, 0.25 h
Pancreas [5] = assay: Biodistribution in rat 9L tumor bearing fisher rat pancreas at 40 to 50 uCi, iv after 15 mins; format: ADME, organism-based; conditions: in vivo, 0.25 h
Spleen [6] = assay: Biodistribution in rat 9L tumor bearing fisher rat spleen at 40 to 50 uCi, iv after 15 mins; format: ADME, organism-based; conditions: in vivo, 0.25 h
Kidney [7] = assay: Biodistribution in rat 9L tumor bearing fisher rat kidney at 40 to 50 uCi, iv after 15 mins; format: ADME, organism-based; conditions: in vivo, 0.25 h
Muscle tissue [8] = assay: Biodistribution in rat 9L tumor bearing fisher rat muscle at 40 to 50 uCi, iv after 15 mins; format: ADME, organism-based; conditions: in vivo, 0.25 h
Brain [9] = assay: Biodistribution in rat 9L tumor bearing fisher rat brain at 40 to 50 uCi, iv after 15 mins; format: ADME, organism-based; conditions: in vivo, 0.25 h
[10] = Biodistribution in rat 9L tumor bearing fisher rat tumor at 40 to 50 uCi, iv after 15 mins; format: ADME, organism-based, Neoplasm; conditions: in vivo, 0.25 h
Testes [11] = assay: Biodistribution in rat 9L tumor bearing fisher rat testes at 40 to 50 uCi, iv after 15 mins; format: ADME, organism-based, Testis; conditions: in vivo, 0.25 h
Bone [12] = assay: Biodistribution in rat 9L tumor bearing fisher rat bone at 40 to 50 uCi, iv after 15 mins; format: ADME, organism-based, Bone element; conditions: in vivo, 0.25 h
Blood [13] = assay: Biodistribution in rat 9L tumor bearing fisher rat blood at 40 to 50 uCi, iv after 30 mins; format: ADME, organism-based; conditions: in vivo, 0.5 h
Heart [14] = assay: Biodistribution in rat 9L tumor bearing fisher rat heart at 40 to 50 uCi, iv after 30 mins; format: ADME, organism-based; conditions: in vivo, 0.5 h
Lung [15] = assay: Biodistribution in rat 9L tumor bearing fisher rat lung at 40 to 50 uCi, iv after 30 mins; format: ADME, organism-based; conditions: in vivo, 0.5 h
Liver [16] = assay: Biodistribution in rat 9L tumor bearing fisher rat liver at 40 to 50 uCi, iv after 30 mins; format: ADME, organism-based; conditions: in vivo, 0.5 h
Pancreas [17] = assay: Biodistribution in rat 9L tumor bearing fisher rat pancreas at 40 to 50 uCi, iv after 30 mins; format: ADME, organism-based; conditions: in vivo, 0.5 h
Spleen [18] = assay: Biodistribution in rat 9L tumor bearing fisher rat spleen at 40 to 50 uCi, iv after 30 mins; format: ADME, organism-based; conditions: in vivo, 0.5 h
Kidney [19] = assay: Biodistribution in rat 9L tumor bearing fisher rat kidney at 40 to 50 uCi, iv after 30 mins; format: ADME, organism-based; conditions: in vivo, 0.5 h
Muscle tissue [20] = assay: Biodistribution in rat 9L tumor bearing fisher rat muscle at 40 to 50 uCi, iv after 30 mins; format: ADME, organism-based; conditions: in vivo, 0.5 h
Brain [21] = assay: Biodistribution in rat 9L tumor bearing fisher rat brain at 40 to 50 uCi, iv after 30 mins; format: ADME, organism-based; conditions: in vivo, 0.5 h
[22] = Biodistribution in rat 9L tumor bearing fisher rat tumor at 40 to 50 uCi, iv after 30 mins; format: ADME, organism-based, Neoplasm; conditions: in vivo, 0.5 h
Testes [23] = assay: Biodistribution in rat 9L tumor bearing fisher rat testes at 40 to 50 uCi, iv after 30 mins; format: ADME, organism-based, Testis; conditions: in vivo, 0.5 h
Bone [24] = assay: Biodistribution in rat 9L tumor bearing fisher rat bone at 40 to 50 uCi, iv after 30 mins; format: ADME, organism-based, Bone element; conditions: in vivo, 0.5 h
Blood [25] = assay: Biodistribution in rat 9L tumor bearing fisher rat blood at 40 to 50 uCi, iv after 60 mins; format: ADME, organism-based; conditions: in vivo, 1 h
Heart [26] = assay: Biodistribution in rat 9L tumor bearing fisher rat heart at 40 to 50 uCi, iv after 60 mins; format: ADME, organism-based; conditions: in vivo, 1 h
Lung [27] = assay: Biodistribution in rat 9L tumor bearing fisher rat lung at 40 to 50 uCi, iv after 60 mins; format: ADME, organism-based; conditions: in vivo, 1 h
Liver [28] = assay: Biodistribution in rat 9L tumor bearing fisher rat liver at 40 to 50 uCi, iv after 60 mins; format: ADME, organism-based; conditions: in vivo, 1 h
Pancreas [29] = assay: Biodistribution in rat 9L tumor bearing fisher rat pancreas at 40 to 50 uCi, iv after 60 mins; format: ADME, organism-based; conditions: in vivo, 1 h
Spleen [30] = assay: Biodistribution in rat 9L tumor bearing fisher rat spleen at 40 to 50 uCi, iv after 60 mins; format: ADME, organism-based; conditions: in vivo, 1 h
Kidney [31] = assay: Biodistribution in rat 9L tumor bearing fisher rat kidney at 40 to 50 uCi, iv after 60 mins; format: ADME, organism-based; conditions: in vivo, 1 h
Muscle tissue [32] = assay: Biodistribution in rat 9L tumor bearing fisher rat muscle at 40 to 50 uCi, iv after 60 mins; format: ADME, organism-based; conditions: in vivo, 1 h
Brain [33] = assay: Biodistribution in rat 9L tumor bearing fisher rat brain at 40 to 50 uCi, iv after 60 mins; format: ADME, organism-based; conditions: in vivo, 1 h
[34] = Biodistribution in rat 9L tumor bearing fisher rat tumor at 40 to 50 uCi, iv after 60 mins; format: ADME, organism-based, Neoplasm; conditions: in vivo, 1 h
Testes [35] = assay: Biodistribution in rat 9L tumor bearing fisher rat testes at 40 to 50 uCi, iv after 60 mins; format: ADME, organism-based, Testis; conditions: in vivo, 1 h
Bone [36] = assay: Biodistribution in rat 9L tumor bearing fisher rat bone at 40 to 50 uCi, iv after 60 mins; format: ADME, organism-based, Bone element; conditions: in vivo, 1 h
Blood [37] = assay: Biodistribution in rat 9L tumor bearing fisher rat blood at 40 to 50 uCi, iv after 120 mins; format: ADME, organism-based; conditions: in vivo, 2 h
Heart [38] = assay: Biodistribution in rat 9L tumor bearing fisher rat heart at 40 to 50 uCi, iv after 120 mins; format: ADME, organism-based; conditions: in vivo, 2 h
Lung [39] = assay: Biodistribution in rat 9L tumor bearing fisher rat lung at 40 to 50 uCi, iv after 120 mins; format: ADME, organism-based; conditions: in vivo, 2 h
Liver [40] = assay: Biodistribution in rat 9L tumor bearing fisher rat liver at 40 to 50 uCi, iv after 120 mins; format: ADME, organism-based; conditions: in vivo, 2 h
Pancreas [41] = assay: Biodistribution in rat 9L tumor bearing fisher rat pancreas at 40 to 50 uCi, iv after 120 mins; format: ADME, organism-based; conditions: in vivo, 2 h
Spleen [42] = assay: Biodistribution in rat 9L tumor bearing fisher rat spleen at 40 to 50 uCi, iv after 120 mins; format: ADME, organism-based; conditions: in vivo, 2 h
Kidney [43] = assay: Biodistribution in rat 9L tumor bearing fisher rat kidney at 40 to 50 uCi, iv after 120 mins; format: ADME, organism-based; conditions: in vivo, 2 h
Muscle tissue [44] = assay: Biodistribution in rat 9L tumor bearing fisher rat muscle at 40 to 50 uCi, iv after 120 mins; format: ADME, organism-based; conditions: in vivo, 2 h
Brain [45] = assay: Biodistribution in rat 9L tumor bearing fisher rat brain at 40 to 50 uCi, iv after 120 mins; format: ADME, organism-based; conditions: in vivo, 2 h
[46] = Biodistribution in rat 9L tumor bearing fisher rat tumor at 40 to 50 uCi, iv after 120 mins; format: ADME, organism-based, Neoplasm; conditions: in vivo, 2 h
Testes [47] = assay: Biodistribution in rat 9L tumor bearing fisher rat testes at 40 to 50 uCi, iv after 120 mins; format: ADME, organism-based, Testis; conditions: in vivo, 2 h
Bone [48] = assay: Biodistribution in rat 9L tumor bearing fisher rat bone at 40 to 50 uCi, iv after 120 mins; format: ADME, organism-based, Bone element; conditions: in vivo, 2 h
[49] = Ratio of drug uptake in tumor to brain in rat 9L tumor bearing fisher rat […] at 40 to 50 uCi, iv after 15 mins; format: ADME, organism-based; conditions: in vivo, 0.25 h
[50] = Ratio of drug uptake in tumor to brain in rat 9L tumor bearing fisher rat […] at 40 to 50 uCi, iv after 30 mins; format: ADME, organism-based; conditions: in vivo, 0.5 h
[51] = Ratio of drug uptake in tumor to brain in rat 9L tumor bearing fisher rat […] at 40 to 50 uCi, iv after 60 mins; format: ADME, organism-based; conditions: in vivo, 1 h
[52] = Ratio of drug uptake in tumor to brain in rat 9L tumor bearing fisher rat […] at 40 to 50 uCi, iv after 120 mins; format: ADME, organism-based; conditions: in vivo, 2 h

N[C@@]1(C(=O)O)CCC[C@@H]1[18F] (racemic)
Drug uptake (Blood [1]): 0.48 % ID/g | Drug uptake (Heart [2]): 0.56 % ID/g | Drug uptake (Lung [3]): 1.53 % ID/g | Drug uptake (Liver [4]): 0.93 % ID/g | Drug uptake (Pancreas [5]): 2.77 % ID/g | Drug uptake (Spleen [6]): 0.64 % ID/g | Drug uptake (Kidney [7]): 4.87 % ID/g | Drug uptake (Muscle tissue [8]): 0.28 % ID/g | Drug uptake (Brain [9]): 0.12 % ID/g | Drug uptake [10]: 0.57 % ID/g | Drug uptake (Testes [11]): 0.23 % ID/g | Drug uptake (Bone [12]): 0.27 % ID/g | Drug uptake (Blood [13]): 0.29 % ID/g | Drug uptake (Heart [14]): 0.44 % ID/g | Drug uptake (Lung [15]): 1.13 % ID/g | Drug uptake (Liver [16]): 0.63 % ID/g | Drug uptake (Pancreas [17]): 2.91 % ID/g | Drug uptake (Spleen [18]): 0.48 % ID/g | Drug uptake (Kidney [19]): 3.44 % ID/g | Drug uptake (Muscle tissue [20]): 0.28 % ID/g | Drug uptake (Brain [21]): 0.13 % ID/g | Drug uptake [22]: 1.68 % ID/g | Drug uptake (Testes [23]): 0.18 % ID/g | Drug uptake (Bone [24]): 0.17 % ID/g | Drug uptake (Blood [25]): 0.21 % ID/g | Drug uptake (Heart [26]): 0.3 % ID/g | Drug uptake (Lung [27]): 0.8 % ID/g | Drug uptake (Liver [28]): 0.41 % ID/g | Drug uptake (Pancreas [29]): 2.65 % ID/g | Drug uptake (Spleen [30]): 0.3 % ID/g | Drug uptake (Kidney [31]): 2 % ID/g | Drug uptake (Muscle tissue [32]): 0.24 % ID/g | Drug uptake (Brain [33]): 0.1 % ID/g | Drug uptake [34]: 1.24 % ID/g | Drug uptake (Testes [35]): 0.14 % ID/g | Drug uptake (Bone [36]): 0.14 % ID/g | Drug uptake (Blood [37]): 0.14 % ID/g | Drug uptake (Heart [38]): 0.28 % ID/g | Drug uptake (Lung [39]): 0.78 % ID/g | Drug uptake (Liver [40]): 0.4 % ID/g | Drug uptake (Pancreas [41]): 1.84 % ID/g | Drug uptake (Spleen [42]): 0.18 % ID/g | Drug uptake (Kidney [43]): 0.89 % ID/g | Drug uptake (Muscle tissue [44]): 0.17 % ID/g | Drug uptake (Brain [45]): 0.1 % ID/g | Drug uptake [46]: 0.98 % ID/g | Drug uptake (Testes [47]): 0.13 % ID/g | Drug uptake (Bone [48]): 0.13 % ID/g | Ratio [49]: 5 | Ratio [50]: 13 | Ratio [51]: 12 | Ratio [52]: 10
